Test results taken from patent publication US10925971B2, “Methods of treating PRLR positive breast cancer” (Regeneron Pharmaceuticals, Inc., priority 2016, dated 2021).
“Also recorded” adds a separate entry of the source.

How the values were obtained:
HEK293 (293) cells = experiment: In vitro cell viability (cell kill) assay, CCK8; format: cell-based, human; details: 293; Table 19
Method in brief: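 Anti-PRLR–DM1 ADCs (non-cleavable SMCC linker) or free DM1-SMe, 500 nM to 5 pM for 3 days on parental or hPRLR-overexpressing lines. HEK293: CCK8 OD450; MCF7: Hoechst nuclear counts by imaging.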

PC3 cells = experiment: In vitro cell viability (cell kill) assay, CCK8; format: cell-based, human; details: Table 18
Method in brief: (§1)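 Readout: CCK8 absorbance at 450 nm (293, PC3) or Hoechst-stained nuclear counts after formaldehyde fixation (MCF7). hPRLR-expressing lines, seeded overnight, got DM1 ADCs (non-cleavable SMCC linker) or DM1-SMe, 500 nM–5 pM, 3 days. Viability as % untreated after digitonin background; IC50 by four-parameter logistic.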

PC3/hPRLR cells = experiment: In vitro cell viability (cell kill) assay, CCK8; format: cell-based, human; details: Table 18
Method in brief: as §1

PC3/PRLR tumors = experiment: PC3/PRLR xenograft, tumor size and tumor growth inhibition; format: in vivo, SCID mice; details: SCID mice, multi-dose 0.2 mg/kg
From the text: (§2) Briefly, 20×10^6 MCF7/PRLR cells (ATCC HTB-22 transfected with full length hPRLR as previously described) were implanted subcutaneously into the left mammary fat pad of female NCr nude mice. In other studies, 10×10^6 PC3/PRLR (ATCC CRL-1435 transfected with full length hPRLR as previously described) were implanted subcutaneously into the left flank of male SCID mice. Additionally, 10×10^6 parental T47D (ATCC HTB-133) or 7.5×10^10 T47D #11 cells (ATCC HTB-133 serially passaged in vivo as described below) were subcutaneously implanted into the left flank of female CB17 SCID mice. All mice were obtained from Taconic (Hudson, N.Y.). Each bolus of cells was supplemented with a 90-day estrogen release pellet (1.7 mg/pellet; Innovative Research America, Sarasota Fla.). […] Control reagents included PBS vehicle, free methyl-disulfide DM1 (DM1-SMe) and isotype Control 1-DM1.
(§3) In multi-dose studies, mice were dosed once a week for a total of three weeks with tumor volumes and body weights being monitored twice weekly throughout the study. Test ADCs were dosed at 5 and/or 15 mg/kg in the multi-dose studies. In single-dose studies, mice received a single dose of test ADC, and tumor volumes and body weights were monitored twice weekly throughout the study. Test ADCs were dosed at 1, 2.5, 5, and 15 mg/kg in the single-dose studies. Average tumor size as well as tumor growth inhibition relative to the vehicle treated group were calculated for each group. Tumors were measured with calipers twice a week until the average size of the vehicle group reached 1000 mm^3. Tumor size was calculated using the formula (length×width^2)/2. Tumor growth inhibition was calculated according to the following formula: (1−((Tfinal−Tinitial)/(Cfinal−Cinitial)))*100, where T (treated group) and C (control group) represent the mean tumor mass on the day the vehicle group reached 1000 mm^3. […] Results are summarized in Tables 21-25 (multi-dose) and Table 26 (single dose). (NT=not tested in the particular experiment shown).

T47D cells = experiment: In vitro cell viability (cell kill) assay, CCK8; format: cell-based, human; details: T47D, Table 19
Experimental: (§4) Next, the ability of anti-PRLR-DM1 antibody-drug conjugates (i.e., anti-PRLR antibodies conjugated to DM1 via a non-cleavable linker [SMCC]) to reduce cell viability was determined using in vitro cell based assays. Cells were seeded in PDL-coated 96 well plates at 1500 to 10000 cells per well in complete growth media and allowed to grow overnight. For cell viability curves, ADCs or free DM1 (as the methyl disulfide derivative DM1-SMe) were added to the cells at final concentrations ranging from 500 nM to 5 pM and incubated for 3 days. The 293, PC3 and T47D cells were incubated with CCK8 (Dojindo, Rockville, Md.) for the final 1-3 hours and the absorbance at 450 nm (OD450) was determined on a Flexstation3 (Molecular Devices, Sunnyvale, Calif.). MCF7 cells were treated with Hoechst 33342 nuclear stain while being fixed with 4% formaldehyde. Images were acquired on the ImageXpress micro XL (Molecular Devices, Sunnyvale, Calif.) and nuclear counts were determined via Columbus image analysis software (Perkin Elmer, Shelton, Conn.). Background OD450 values (PC3, 293, and T47D) or nuclear counts (MCF7) from digitonin (40 nM) treated cells was subtracted from all wells and viability was expressed as a percentage of the untreated controls. IC50 values were determined from a four-parameter logistic equation over a 10-point response curve (GraphPad Prism).

T47D#11 tumors = format: in vivo, CB17 SCID mice; details: mouse, in vivo, 0.2 mg/kg
From the text: as §2, §3

MCF7/PRLR tumors = experiment: MCF7/PRLR breast cancer xenograft, tumor size and tumor growth inhibition; format: in vivo, NCr nude mice; details: NCr Nude mice, multi-dose 0.2 mg/kg
From the text: as §2, §3

MCF7 (MCF7/ATCC) cells = experiment: In vitro cell viability (cell kill) assay, nuclear counts; format: cell-based, human; details: MCF7/ATCC
From the text: (§5) PRLR-overexpressing cells, including HEK293, PC3, MCF7 and NCI-N87, were generated to assess the ability of anti-PRLR conjugated antibodies to reduce cell viability. For comparative purposes, PC3 and T47D cells with overexpressed ErbB2 were also generated, as well as an MCF7 cell line over-expressing both hPRLR and hErbB2. Briefly, Lipofectamine® 2000-mediated transfection methodology was utilized to generate HEK293 cells expressing human PRLR (HEK293/hPRLR) or human ErbB2 (HEK293/hErbB2). Lipofectamine LTX with Plus Reagent was used to generate PC3 cells expressing human PRLR (PC3/hPRLR) or human ErbB2 (PC3/hErbB2). Lentiviral-mediated transduction was utilized to generate MCF7 cells expressing human PRLR (MCF7/hPRLR), NCI-N87 cells expressing human PRLR (NCI-N87/hPRLR), T47D cells over-expressing human ErbB2 (T47D/hErbB2), and MCF7 cells expressing both human PRLR and human ErbB2 (MCF7/hPRLR/hErbB2). All lines were selected for at least two weeks in complete growth media plus appropriate selection reagents. Stably expressing populations were enriched for PRLR expression via FACS using the anti PRLR antibody Control I.
as §4

[1] = tested on: MCF7/hPRLR (MCF7/PRLR) cells; experiment: as above; format: cell-based, human
From the text: as §5, §4

[2] = tested on: PRLR expression in T47DvII cells; experiment: PRLR expression after continuous culture with fulvestrant (flow cytometry or western blotting); format: cell-based, human; details: continuous culture with 10 or 100 nM, data not shown
T47Dv11 tumors = experiment: T47Dv11 breast tumor xenograft, single agent and combination with fulvestrant; format: in vivo, C.B.-17 SCID mice; details: for Average Tumor Growth Inhibition (%) / Final Tumor Volume (mean ± SD): T47DvII tumors in SCID mice, Day 70
Experimental: The T47Dv11 model was used to assess the activity of H1H6958N2-DM1 in a model with significant levels of endogenous PRLR. […] Initially, 10×10^6 parental T47D cells were implanted subcutaneously (SC) into the left flank of female C.B.-17 SCID mice (Taconic, Hudson N.Y.). Tumors were supplemented with a 90-day release 1.7 mg estrogen pellet (Innovative Research America). Where T47D tumors were observed, they were excised and cut into 3 mm fragments and subsequently implanted into the left flank of separate female C.B.-17 SCID mice. Subsequent passaging was performed until a large tumor was disaggregated into a single cell suspension. The cells (named T47Dv11) from this tumor were then cultured in vitro and expanded. […] For efficacy studies, mice were implanted with 7.5×10^6 T47Dv11 cells into the left flank of female C.B.-17 SCID mice supplemented with a 90-day release 0.72 mg/pellet estrogen pellet. For MCF7 and MCF7/PRLR tumor xenografts, 2×10^7 MCF7/PRLR cells were implanted SC into the left mammary fat pad of female NCr nude mice (7-8 weeks old) supplemented with 90-day release 0.72 mg/pellet estrogen pellets. Tumors were measured with calipers twice a week for the duration of each study. Tumor volume was calculated using the formula TV=(length×width^2)/2.
After T47Dv11 tumors reached an average volume of ˜150-200 mm^3 (14-16 days post implantation), mice were randomized into treatment groups (n=8-9 mice/group) and received a single dose or three once-weekly doses of H1H6958N2-DM1, control ADC, or vehicle control, administered systemically by intravenous tail-vein injection. […] Tumor size and body weight were measured in vivo twice per week throughout the duration of the study.
Next, the combination of H1H6958N2-DM1 with the SERD fulvestrant was tested in the T47Dv11 xenograft model. Here, the activity of either agent at partially effective doses was compared against the activity of the agents in combination. First, a dose titration study of weekly administration of fulvestrant was performed in order to establish its single agent activity (FIG. 4).
For the subcutaneous tumors, average tumor size as well as tumor growth inhibition relative to the Vehicle treated group were calculated for each group. Tumors were measured with calipers twice a week until the average size of the vehicle group reached 1200 mm^3. Tumor size was calculated using the formula (length×width^2)/2. For all studies, tumor growth inhibition was calculated according to the following formula: (1−((Tfinal−Tinitial)/(Cfinal−Cinitial)))*100, where T (treated group) and C (control group) represent the mean tumor mass on the day the vehicle group reached 1000 mm^3.

TM00107 PDX tumors = experiment: TM00107 patient derived xenograft (PDX) breast cancer model, tumor volume; format: in vivo, NOD SCID gamma (NSG) mice; details: intravenous every 4 days, 4 doses
Experimental: Efficacy of H1H6958N2-DM1 was also assessed in a patient derived xenograft (PDX) model of breast cancer that may better represent the response in patients. NOD SCID gamma (NSG) mice bearing tumor fragments of the TM00107 PDX breast cancer tumor were sourced from The Jackson Laboratories. The TM00107 PDX model was derived from an ER+/−/PR−/HER2− metastatic breast adenocarcinoma. PRLR expression was confirmed by microarray analysis and immunohistochemistry on tumor sample slides provided by The Jackson Laboratory (data not shown). When tumors were an average volume of ˜400-600 mm^3 (21 days post implantation), mice were randomized into treatment groups (n=7 mice/group) and were administered H1H6958N2-DM1, control ADC, or vehicle control by intravenous injection once weekly for a total of 4 weeks. A separate treatment group was administered paclitaxel by intravenous injection every 4 days for a total of 4 doses.

[3] = PC3/PRLR tumors TRIAL #1, Day 63
[4] = PC3/PRLR tumors TRIAL #2, Day 55
[5] = MCF7/PRLR tumors TRIAL #1, Day 52
[6] = MCF7/PRLR tumors TRIAL #2, Day 63

COc1cc2cc(c1Cl)N(C)C(=O)C[C@H](OC(=O)[C@H](C)N(C)C(=O)CCSSC)[C@]1(C)O[C@H]1[C@H](C)[C@@H]1C[C@@](O)(NC(=O)O1)[C@H](OC)/C=C/C=C(\C)C2 [DM1-SMe, reference compound] was tested, and the “% Kill” value (HEK293 (293) cells) was 95%, the IC50 (HEK293 (293) cells) was 1.2 nM and the “% Kill” value (PC3 cells) was 90%. For the same molecule, the IC50 (PC3 cells) was 0.5 nM, the “% Kill” value (PC3/hPRLR cells) was 70% and the IC50 (PC3/hPRLR cells) was 1 nM. The “Average Tumor Growth Inhibition (%)” value (PC3/PRLR tumors; [3]) was −5%, the “Final Tumor size mm^3 (mean ± SEM)” value (PC3/PRLR tumors; [3]) was 1361 ± 120 mm^3 and the “Average Tumor Growth Inhibition (%)” value (PC3/PRLR tumors; [4]) was 7%. For the same molecule, the “Final Tumor size mm^3 (mean ± SEM)” value (PC3/PRLR tumors; [4]) was 1147 ± 59 mm^3, the “% Kill” value (T47D cells) was 100% and the IC50 (T47D cells; read-out: IC50) was 1.5 nM. The “Average Tumor Growth Inhibition (%)” value (T47D#11 tumors) was −19%, the “Final Tumor size mm^3 (mean ± SEM)” value (T47D#11 tumors) was 1433 ± 23 mm^3 and the “Average Tumor Growth Inhibition (%)” value (MCF7/PRLR tumors; [5]) was 57%. The “Final Tumor size mm^3 (mean ± SEM)” value (MCF7/PRLR tumors; [5]) was 625 ± 141 mm^3, the “Average Tumor Growth Inhibition (%)” value (MCF7/PRLR tumors; [6]) was −33% and the “Final Tumor size mm^3 (mean ± SEM)” value (MCF7/PRLR tumors; [6]) was 1080 ± 451 mm^3. For the same molecule, the “% Kill” value (MCF7 (MCF7/ATCC) cells; Table 18) was 80%, the IC50 (MCF7 (MCF7/ATCC) cells; Table 18) was 3 nM and the “% Kill” value (MCF7 (MCF7/ATCC) cells; Table 20) was 80%. The IC50 (MCF7 (MCF7/ATCC) cells; Table 20) was 1.3 nM, the “% Kill” value ([1]; Table 18) was 86% and the IC50 ([1]; Table 18) was 1.9 nM. The “% Kill” value ([1]; Table 20) was 80% and the IC50 ([1]; Table 20) was 0.8 nM.

For C[C@]12CC[C@@H]3c4ccc(O)cc4C[C@@H](CCCCCCCCC[S+]([O-])CCCC(F)(F)C(F)(F)F)[C@H]3[C@@H]1CC[C@@H]2O (stereo partly drawn) [fulvestrant, reference compound], the “PRLR expression” value [2] was “did not decrease PRLR expression; also recorded: did not significantly reduce PRLR expression”, the “Average Tumor Growth Inhibition (%)” value (T47Dv11 tumors; 150 mg/kg) was 52% and the “Final Tumor Volume (mean ± SD)” value (T47Dv11 tumors; 150 mg/kg) was 660 ± 205 mm^3. The “Average Tumor Growth Inhibition (%)” value (T47Dv11 tumors; 250 mg/kg) was 74%, the “Final Tumor Volume (mean ± SD)” value (T47Dv11 tumors; 250 mg/kg) was 433 ± 189 mm^3 and the “anti-tumor activity” value (T47Dv11 tumors; combination study, individual treatment 150 or 250 mg/kg subcutaneously once weekly) was “Significant anti-tumor activity”.

For CC(=O)O[C@H]1C(=O)[C@@]2(C)[C@H]([C@H](OC(=O)c3ccccc3)[C@]3(O)C[C@H](OC(=O)[C@H](O)[C@@H](NC(=O)c4ccccc4)c4ccccc4)C(C)=C1C3(C)C)[C@]1(OC(C)=O)CO[C@@H]1C[C@@H]2O [paclitaxel, reference compound], the “tumor growth” value (TM00107 PDX tumors) was “did not have an effect on tumor growth”.
